From patent US20090238852A1, “METHODS FOR CONTROLLING INTRACELLULAR CALCIUM LEVELS ASSOCIATED WITH AN ISCHEMIC EVENT” (University of Utah Research Foundation, priority 2008, published 2009)

Assays:
blood coagulation (aPTT) = test: Phase I bolus plus 72 hour infusion study: aPTT; format: in vivo, human; settings: from relationship of aPTT change and ODSH level, FIG. 23
Experimental: (§1) A study was performed in eight (8) healthy adult male and female subjects to assess the effects of a bolus dose and 72 hour infusion of 2-O, 3-O desulfated heparin. The study was a Phase I study with a three day treatment period. Doses were adjusted to maintain an aPTT level of 40-45 seconds. Subjects were between the ages of 18 and 60, were not pregnant, and were normal in body weight. They all had normal coagulation function and hemoglobin values at baseline.
Subjects received an initial bolus of 8 mg/kg of ODSH over 15 minutes, followed by 72 hours continuous infusion beginning at 0.58 mg/kg/hr. For each subject ODSH as a 50 mg/ml formulation was diluted with normal saline and administered as a bolus infused over 15 minutes containing the calculated amount of ODSH the subject was to receive, followed by infusion of ODSH diluted in saline. The infusion dose was adjusted to maintain an aPTT of 40-45 seconds. […] Using values for aPTT and ODSH levels, pharmacokinetic parameters were calculated by noncompartmental methods using a commercial software program (PhAST 2.3-001). The following pharmacokinetic parameters were calculated as above: Cmax; Kel; tmax; AUC O-t; AUCinf, t1/2; CL; and Vdss.

anti-Xa = settings: product of the procedure of U.S. Pat. No. 5,990,097; cited from earlier work
[1] = in vivo
Experimental: as §1
Subjects received an initial bolus of 8 mg/kg of ODSH over 15 minutes, followed by 72 hours continuous infusion beginning at 0.58 mg/kg/hr. For each subject ODSH as a 50 mg/ml formulation was diluted with normal saline and administered as a bolus infused over 15 minutes containing the calculated amount of ODSH the subject was to receive, followed by infusion of ODSH diluted in saline. The infusion dose was adjusted to maintain an aPTT of 40-45 seconds. Immediately before infusion and after the start of each infusion, blood was drawn at periodic times (over a total 72 hour period) to monitor the effect of infusion on the following laboratory studies: activated partial thromboplastin time (aPTT), prothrombin time (PT), activated clotting time (ACT), and ODSH plasma level. Serum chemistries and a complete blood count were checked immediately before infusion and again periodically for up to 240 hours later. Using values for aPTT and ODSH levels, pharmacokinetic parameters were calculated by noncompartmental methods using a commercial software program (PhAST 2.3-001). The following pharmacokinetic parameters were calculated as above: Cmax; Kel; tmax; AUC O-t; AUCinf, t1/2; CL; and Vdss.

[2] = tested on: pigs, 75 min LAD balloon occlusion and 3 h reperfusion; test: Porcine ischemia/reperfusion model: global ejection fraction by contrast ventriculography; format: in vivo, pig; settings: for Global Ejection Fraction, Baseline: before ischemia and dosing; for Global Ejection Fraction, 180 Minutes after End of Ischemia: control 34 ± 3
Excerpt: Arterial access was achieved via bilateral femoral artery cut-downs for the insertion of 8F sheaths. Central venous and carotid access was achieved via a neck incision to expose the external jugular vein and common carotid artery. Animals were then anticoagulated with 50 U/kg of unfractionated heparin to maintain an activated clotting time (ACT) between 250-350 seconds, prior to ischemia. A 7-8 Fr pigtail catheter was placed in the left ventricular cavity to measure pressure and for injection of […] microspheres. Angiography was performed to define coronary anatomy and measure the diameter of the left anterior descending coronary artery (LAD) at the point of intended balloon occlusion. A coronary sinus catheter was placed via the external jugular vein under fluoroscopic guidance for coronary venous sampling. Baseline cardiodynamic and hemodynamic data were measured using a solid state transducer-tipped catheter in the left ventricle (Millar Instruments, Houston, Tex.) to measure left ventricular pressure, and a fluid-filled transducer connected to the side port of the femoral artery sheath to measure peripheral arterial pressure. Approximately 3-4 million neutron-activated microspheres (BioPhysics Assay Laboratory, Inc, Worcester, Ma) (15 μm) were delivered through a pig-tail catheter into the left ventricle over a 30 second period, to quantify regional myocardial blood flow (RMBF). Simultaneously with injection, a reference sample was withdrawn at a rate of 7 cc/min from the femoral artery sheath, for 90 seconds during and after injection of microspheres. A contrast ventriculogram (60° right anterior oblique) was obtained to assess global and regional myocardial function at baseline. An angioplasty balloon catheter sized to exceed ambient diameter by 1 mm (range chosen was 3.0-4.0 mm) was then inserted into the proximal LAD, after the first diagonal branch. […] In addition, 2% lidocaine (4-8 ml total) was administered during ischemia, as needed, to attenuate ventricular arrhythmias. Balloon occlusion time was 75 minutes with coronary occlusion confirmed by contrast angiography, ST segment changes on electrocardiography, and quantitatively confirmed by microspheres delivered at the end of ischemia, as described above. Episodes of ventricular fibrillation were immediately treated with electrical cardioversion delivered at 200 Joules. During the ischemic period, animals were randomly assigned to receive either saline vehicle or 2-O, 3-O desulfated heparin (ODSH) at a dose of 5 mg/kg, 15 mg/kg, or 45 mg/kg as an IV bolus at 2 minutes prior to deflation of the balloon (pharmacological postconditioning), and repeated at 90 minutes of reperfusion. Following deflation of the angioplasty balloon, animals underwent 3 hours of further reperfusion and observation. Microspheres were again injected to measure myocardial blood flow at 15 minutes of reperfusion and again at 180 minutes of reperfusion. At the end of 180 minutes of reperfusion, animals were euthanized with an IV injection of pentobarbital sodium (100 mg/kg) and the heart was excised to quantify the area at risk, infarct size, regional myocardial blood flow, and myeloperoxidase activity. Hemodynamic data (left ventricular and arterial blood pressure) and derived variables were recorded continuously using 10× and Datanalyst software (EMKA Technologies, Falls Church, Va.).
Left ventricular contrast angiography was performed at baseline, ischemia, and 180 minutes after relief of ischemia. Contrast (Hypaque, approximately 50 mL) was rapidly injected via a pigtail catheter using a power injector. Left ventricular ejection fraction (LVEF) and regional function of the antero-lateral wall was calculated using the area-length method, which outlined the ventricle at the end of systole and diastole. LVEF and regional function were analyzed independently by 2 blinded observers.

## 2-O, 3-O desulfated heparin [ODSH]
Blood coagulation (aPTT)
  aPTT above baseline at ODSH blood concentrations of 100 μg/mL: approximately 50 seconds
  aPTT absolute value at ODSH blood concentrations of 100 μg/mL: about 75 seconds
anti-Xa
  anti-Xa anti-coagulant activity: less than 10 U/mg
[1]
  Platelet count, Day After Infusion: 261 ± 37 thousands/μL blood
  Platelet count, Day Before Infusion: 261 ± 40 thousands/μL blood
  Platelet count, Infusion Day 2: 258 ± 39 thousands/μL blood
  Platelet count, Infusion Day 3: 272 ± 42 thousands/μL blood
  ecchymosis: Mild ecchymosis was reported in one subject
  transient elevations in serum ALT and AST: observed in seven subjects
[2]; ODS 15 mg/kg (second line, r8)
  Global Ejection Fraction, Ischemia: 23 ± 3%
  Global Ejection Fraction, Baseline: 57 ± 4%
  Global Ejection Fraction, 180 Minutes after End of Ischemia: 42 ± 4%
[2]; ODS 45 mg/kg
  Global Ejection Fraction, Ischemia: 30 ± 3%
  Global Ejection Fraction, Baseline: 60 ± 2%
  Global Ejection Fraction, 180 Minutes after End of Ischemia: 38 ± 6%
[2]; ODS-treated animals, all doses
  ejection fraction at 3 hours after the end of ischemia versus control: tended to be higher
[2]; line printed ODS 15 mg/kg (first of two, r7), control 52 ± 2
  Global Ejection Fraction, Baseline: 61 ± 2%
[2]; line printed ODS 15 mg/kg (first of two, r7), control 25 ± 2
  Global Ejection Fraction, Ischemia: 30 ± 3%
[2]; line printed ODS 15 mg/kg (first of two, r7)
  Global Ejection Fraction, 180 Minutes after End of Ischemia: 42 ± 5%
